The values below come from US20240393694A1, “METAL CONTAINING PHOTORESIST DEVELOPER COMPOSITION, AND METHOD OF FORMING PATTERNS INCLUDING STEP OF DEVELOPING USING THE COMPOSITION” (SAMSUNG SDI CO., LTD., priority 2023, published 2024).

A short description of this data set: pKa of the sulfonimide-based compound (Table 1).

The term pKa denotes the pH at which an ionisable group is half protonated. A high value points to a group that holds its proton tightly. Regarding `O=C1CCC(=O)N1` [Succimide], the pKa was 9.5.

Take `O=C1NC(=O)c2ccccc21` [Phthalimide]: the pKa stood at 8.3.
